Where two headings read alike, the source gives them in different places.
Tests used:
HT-29 cells = assay: Inhibition of cell proliferation (MTS), HT-29 cells; assay type: cell-based; conditions: HT-29 cells, 5000 cells/well, 72 h, MTS, absorbance 490 nm, read-out: HT29 IC50
Procedure: (§1) MTS testing kit was purchased from Promega. The DMEM, RPMI-1640 and Fetal bovine serum were purchased from Gibco. Dimethyl sulfoxide (DMSO) was purchased from Sigma.
(§2) To investigate whether a compound is able to inhibit the activity of MEK in cells, a mechanism-based assay using A-375 and HT-29 cell was developed. In this assay, inhibition of MEK was detected by the inhibition of A-375 and HT-29 cells proliferation. A-375 and HT-29 cells were cultured in culture flasks to 40-80% confluence respectively in DMEM and RPMI-1640 plus 10% fetal bovine serum. Cells were collected and plated onto 96-well plates at desired cell density (A-375: 3000 cells/well; HT-29: 5000 cells/well). Plates were incubated overnight at 37° C., with 5% CO2 to adhere. Compounds were added to the plates. The final compound concentrations were […], 12.35, 4.12, 1.37, 0.46 and 0.15 nM, respectively. Place plates at 37° C., with 5% CO2 for 72 h. 10 μl MTS were added to each well and incubate the plates for exactly 2 hours. Absorbance was measured at 490 nm. […] was calculated using GraphPad Prism 5.0.

A-375 cells = assay: Inhibition of cell proliferation (MTS), A-375 cells; assay type: cell-based; conditions: A-375 cells, 3000 cells/well, 72 h, MTS, absorbance 490 nm, read-out: A375 IC50
Procedure: as §1, §2

Row | SMILES | IC50 (HT-29 cells; Homo sapiens, HT-29, 72 h) | IC50 (A-375 cells; Homo sapiens, A-375, 72 h) | IC50 (HT-29 cells) | IC50 (A-375 cells)
1 | CC(=O)Nc1cccc(-c2nn(C)c(=O)c3c(Nc4ccc(I)cc4F)c(F)c(=O)n(C)c23)c1 [Example 21, N-(3-(3-fluoro-4-(2-fluoro-4-iodophenylamino)-1,6-dimethyl-2,5-dioxo-1,2,5,6-tetrahydropyrido[2,3-d]pyridazin-8-yl)phenyl)acetamide] | < 1 nM | 3.9 nM |  | 
2 | Cn1c(=O)c(F)c(Nc2ccc(I)cc2F)c2c(=O)n(CC(O)CO)nc(-c3cccc(NS(=O)(=O)C4CC4)c3)c21 (centres unmarked) [Example 46, N-(3-(6-(2,3-dihydroxypropyl)-3-fluoro-4-(2-fluoro-4-iodophenylamino)-1-methyl-2,5-dioxo-1,2,5,6-tetrahydropyrido[2,3-d]pyridazin-8-yl)phenyl)cyclopropanesulfonamide] | 24.2 nM | 68.9 nM |  | 
3 | CC(=O)Nc1cccc(-c2nn(C(C)C)c(=O)c3c(Nc4ccc(I)cc4F)c(F)c(=O)n(C)c23)c1 [Example 9, N-(3-(3-fluoro-4-(2-fluoro-4-iodophenylamino)-6-isopropyl-1-methyl-2,5-dioxo-1,2,5,6-tetrahydropyrido[2,3-d]pyridazin-8-yl)phenyl)acetamide] | 47.3 nM | 44 nM |  | 
4 | CN(c1cccc(-c2nn(C)c(=O)c3c(Nc4ccc(I)cc4F)c(F)c(=O)n(C)c23)c1)S(=O)(=O)C1CC1 [Example 52, N-(3-(3-fluoro-4-((2-fluoro-4-iodophenyl)amino)-1,6-dimethyl-2,5-dioxo-1,2,5,6-tetrahydropyrido[2,3-d]pyridazin-8-yl)phenyl)-N-methylcyclopropanesulfonamide] | 7.8 nM | 5.7 nM |  | 
5 | CCC(=O)Nc1cccc(-c2nn(C3CC3)c(=O)c3c(Nc4ccc(I)cc4F)c(F)c(=O)n(C)c23)c1 [Example 2, N-(3-(6-cyclopropyl-3-fluoro-4-(2-fluoro-4-iodophenylamino)-1-methyl-2,5-dioxo-1,2,5,6-tetrahydropyrido[2,3-d]pyridazin-8-yl)phenyl)propionamide] | 13.7 nM | 10.6 nM |  | 
6 | CC(C)n1nc(-c2cccc(NS(=O)(=O)C(C)C)c2)c2c(c(Nc3ccc(I)cc3F)c(F)c(=O)n2C)c1=O [Example 15, N-(3-(3-fluoro-4-(2-fluoro-4-iodophenylamino)-6-isopropyl-1-methyl-2,5-dioxo-1,2,5,6-tetrahydropyrido[2,3-d]pyridazin-8-yl)phenyl)propane-2-sulfonamide] | 152 nM | 34.9 nM |  | 
7 | Cn1nc(-c2cccc(N3CCCS3(=O)=O)c2)c2c(c(Nc3ccc(I)cc3F)c(F)c(=O)n2C)c1=O [Example 56, 8-(3-(1,1-dioxidoisothiazolidin-2-yl)phenyl)-3-fluoro-4-((2-fluoro-4-iodophenyl)amino)-1,6-dimethylpyrido[2,3-d]pyridazine-2,5(1H,6H)-dione] | 14.1 nM | 9.3 nM |  | 
8 | CC(=O)Nc1cccc(-c2nn(CC(O)CO)c(=O)c3c(Nc4ccc(I)cc4F)c(F)c(=O)n(C)c23)c1 (centres unmarked) [Example 40, N-(3-(6-(2,3-dihydroxypropyl)-3-fluoro-4-(2-fluoro-4-iodophenylamino)-1-methyl-2,5-dioxo-1,2,5,6-tetrahydropyrido[2,3-d]pyridazin-8-yl)phenyl)acetamide] | 1.9 nM | 2.5 nM |  | 
9 | C=CCn1nc(-c2cccc(NS(=O)(=O)CC)c2)c2c(c(Nc3ccc(I)cc3F)c(F)c(=O)n2C)c1=O [Example 32, N-(3-(6-allyl-3-fluoro-4-(2-fluoro-4-iodophenylamino)-1-methyl-2,5-dioxo-1,2,5,6-tetrahydropyrido[2,3-d]pyridazin-8-yl)phenyl)ethanesulfonamide] | 12.7 nM | 36.2 nM |  | 

Now from value to molecule:

Row | IC50 (HT-29 cells; Homo sapiens, HT-29, 72 h) | IC50 (A-375 cells; Homo sapiens, A-375, 72 h) | IC50 (HT-29 cells) | IC50 (A-375 cells) | SMILES
10 | 4.2 nM | 2.4 nM |  |  | Cn1c(=O)c(F)c(Nc2ccc(I)cc2F)c2c(=O)n(CCF)nc(-c3cccc(NS(=O)(=O)C4CC4)c3)c21 [Example 19, N-(3-(3-fluoro-4-(2-fluoro-4-iodophenylamino)-6-(2-fluoroethyl)-1-methyl-2,5-dioxo-1,2,5,6-tetrahydropyrido[2,3-d]pyridazin-8-yl)phenyl)cyclopropanesulfonamide]
11 | 6.4 nM | 4.8 nM |  |  | CCS(=O)(=O)Nc1cccc(-c2nn(C3CC3)c(=O)c3c(Nc4ccc(I)cc4F)c(F)c(=O)n(C)c23)c1 [Example 6, N-(3-(6-cyclopropyl-3-fluoro-4-(2-fluoro-4-iodophenylamino)-1-methyl-2,5-dioxo-1,2,5,6-tetrahydropyrido[2,3-d]pyridazin-8-yl)phenyl)ethanesulfonamide]
12 | 11.7 nM | 2.5 nM |  |  | CN(c1cccc(-c2nn(C3CC3)c(=O)c3c(Nc4ccc(I)cc4F)c(F)c(=O)n(C)c23)c1)S(=O)(=O)C1CC1 [Example 49, N-(3-(6-cyclopropyl-3-fluoro-4-((2-fluoro-4-iodophenyl)amino)-1-methyl-2,5-dioxo-1,2,5,6-tetrahydropyrido[2,3-d]pyridazin-8-yl)phenyl)-N-methylcyclopropanesulfonamide]
13 | 6.1 nM | 13.7 nM |  |  | CCn1nc(-c2cccc(NC(C)=O)c2)c2c(c(Nc3ccc(I)cc3F)c(F)c(=O)n2C)c1=O [Example 24, N-(3-(6-ethyl-3-fluoro-4-(2-fluoro-4-iodophenylamino)-1-methyl-2,5-dioxo-1,2,5,6-tetrahydropyrido[2,3-d]pyridazin-8-yl)phenyl)acetamide]
14 |  |  | 4.6 nM | 4.2 nM | C=CCn1nc(-c2cccc(NS(=O)(=O)C3CC3)c2)c2c(c(Nc3ccc(I)cc3F)c(F)c(=O)n2C)c1=O [Example 34, N-(3-(6-allyl-3-fluoro-4-(2-fluoro-4-iodophenylamino)-1-methyl-2,5-dioxo-1,2,5,6-tetrahydropyrido[2,3-d]pyridazin-8-yl)phenyl)cyclopropanesulfonamide]
15 | < 1 nM | 11.9 nM |  |  | CCn1nc(-c2cccc(NS(=O)(=O)C(C)C)c2)c2c(c(Nc3ccc(I)cc3F)c(F)c(=O)n2C)c1=O [Example 26, N-(3-(6-ethyl-3-fluoro-4-(2-fluoro-4-iodophenylamino)-1-methyl-2,5-dioxo-1,2,5,6-tetrahydropyrido[2,3-d]pyridazin-8-yl)phenyl)propane-2-sulfonamide]
16 | 41.9 nM | 26.6 nM |  |  | Cn1c(=O)c(F)c(Nc2ccc(I)cc2F)c2c(=O)n(C3CC3)nc(-c3cccc(NC(=O)C4CC4)c3)c21 [Example 4, N-(3-(6-cyclopropyl-3-fluoro-4-(2-fluoro-4-iodophenylamino)-1-methyl-2,5-dioxo-1,2,5,6-tetrahydropyrido[2,3-d]pyridazin-8-yl)phenyl)cyclopropanecarboxamide]
17 | < 1 nM | < 1 nM |  |  | Cn1nc(-c2cccc(NS(C)(=O)=O)c2)c2c(c(Nc3ccc(I)cc3F)c(F)c(=O)n2C)c1=O [Example 22, N-(3-(3-fluoro-4-(2-fluoro-4-iodophenylamino)-1,6-dimethyl-2,5-dioxo-1,2,5,6-tetrahydropyrido[2,3-d]pyridazin-8-yl)phenyl)methanesulfonamide]
18 | 4.1 nM | 3.5 nM |  |  | CC(C)S(=O)(=O)Nc1cccc(-c2nn(C3CC3)c(=O)c3c(Nc4ccc(I)cc4F)c(F)c(=O)n(C)c23)c1 [Example 7, N-(3-(6-cyclopropyl-3-fluoro-4-(2-fluoro-4-iodophenylamino)-1-methyl-2,5-dioxo-1,2,5,6-tetrahydropyrido[2,3-d]pyridazin-8-yl)phenyl)propane-2-sulfonamide]
19 | > 1000 nM | > 1000 nM |  |  | Cc1ccc(Nc2c(C)c(=O)n(C)c3c(C)n[nH]c(=O)c23)c(F)c1 [Reference Compound, 4-((2-fluoro-4-methylphenyl)amino)-1,3,8-trimethylpyrido[2,3-d]pyridazine-2,5(1H,6H)-dione, reference compound]
20 | 16.6 nM | 4.9 nM |  |  | CN(c1cccc(-c2nn(C3CC3)c(=O)c3c(Nc4ccc(I)cc4F)c(F)c(=O)n(C)c23)c1)S(C)(=O)=O [Example 47, N-(3-(6-cyclopropyl-3-fluoro-4-((2-fluoro-4-iodophenyl)amino)-1-methyl-2,5-dioxo-1,2,5,6-tetrahydropyrido[2,3-d]pyridazin-8-yl)phenyl)-N-methylmethanesulfonamide]
21 | 5.1 nM | 4 nM |  |  | Cn1c(=O)c(F)c(Nc2ccc(I)cc2F)c2c(=O)n(C3CC3)nc(-c3cccc(NS(C)(=O)=O)c3)c21 [Example 5, N-(3-(6-cyclopropyl-3-fluoro-4-(2-fluoro-4-iodophenylamino)-1-methyl-2,5-dioxo-1,2,5,6-tetrahydropyrido[2,3-d]pyridazin-8-yl)phenyl)methanesulfonamide]
22 | 59.6 nM | 61.2 nM |  |  | CCC(=O)Nc1cccc(-c2nn(C(C)C)c(=O)c3c(Nc4ccc(I)cc4F)c(F)c(=O)n(C)c23)c1 [Example 10, N-(3-(3-fluoro-4-(2-fluoro-4-iodophenylamino)-6-isopropyl-1-methyl-2,5-dioxo-1,2,5,6-tetrahydropyrido[2,3-d]pyridazin-8-yl)phenyl)propionamide]

— US10022374B2, “Certain protein kinase inhibitors” (Shanghai Fochon Pharmaceutical Co., Ltd., priority 2013, dated 2018)
